Experimental data reported in the kinase profiling compilation of Christmann-Franck et al. (2016).

Experiments:
Assay in all cases: radiometric filter-binding kinase assay
[1] = molecular target: ABL1 (human) (UniProt P00519)
[2] = molecular target: CDK9 CCNT1 (human) (UniProt P50750+O60563)
[3] = molecular target: CSNK1G2 (human) (UniProt P78368)
[4] = molecular target: DDR2 (human) (UniProt Q16832)
[5] = molecular target: EIF2AK3 (human) (UniProt Q9NZJ5)
[6] = molecular target: IRAK1 (human) (UniProt P51617)
Sequence of IRAK1 (human) (P51617 whole entry, looked up): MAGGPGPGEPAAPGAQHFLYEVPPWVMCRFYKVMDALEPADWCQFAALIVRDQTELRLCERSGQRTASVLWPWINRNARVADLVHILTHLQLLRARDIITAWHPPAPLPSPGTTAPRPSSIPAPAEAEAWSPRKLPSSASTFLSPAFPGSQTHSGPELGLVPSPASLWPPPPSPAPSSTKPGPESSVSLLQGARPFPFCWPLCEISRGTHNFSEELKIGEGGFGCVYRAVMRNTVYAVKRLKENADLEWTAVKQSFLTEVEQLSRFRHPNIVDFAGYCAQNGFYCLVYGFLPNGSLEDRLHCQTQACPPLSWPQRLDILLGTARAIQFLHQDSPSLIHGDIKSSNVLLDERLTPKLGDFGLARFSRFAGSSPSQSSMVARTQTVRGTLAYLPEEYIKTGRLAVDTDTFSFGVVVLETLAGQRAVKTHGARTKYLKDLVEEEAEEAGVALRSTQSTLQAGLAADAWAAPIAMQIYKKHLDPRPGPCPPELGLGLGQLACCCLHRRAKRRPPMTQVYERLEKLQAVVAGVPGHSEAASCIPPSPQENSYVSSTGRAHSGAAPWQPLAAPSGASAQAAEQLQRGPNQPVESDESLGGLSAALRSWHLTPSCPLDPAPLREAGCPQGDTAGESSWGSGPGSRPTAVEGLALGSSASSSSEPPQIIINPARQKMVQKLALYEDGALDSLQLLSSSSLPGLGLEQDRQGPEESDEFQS

[7] = molecular target: MAP4K3 (human) (UniProt Q8IVH8)
[8] = molecular target: MAP4K5 (human) (UniProt Q9Y4K4)
Sequence of MAP4K5 (human) (Q9Y4K4 whole entry, looked up): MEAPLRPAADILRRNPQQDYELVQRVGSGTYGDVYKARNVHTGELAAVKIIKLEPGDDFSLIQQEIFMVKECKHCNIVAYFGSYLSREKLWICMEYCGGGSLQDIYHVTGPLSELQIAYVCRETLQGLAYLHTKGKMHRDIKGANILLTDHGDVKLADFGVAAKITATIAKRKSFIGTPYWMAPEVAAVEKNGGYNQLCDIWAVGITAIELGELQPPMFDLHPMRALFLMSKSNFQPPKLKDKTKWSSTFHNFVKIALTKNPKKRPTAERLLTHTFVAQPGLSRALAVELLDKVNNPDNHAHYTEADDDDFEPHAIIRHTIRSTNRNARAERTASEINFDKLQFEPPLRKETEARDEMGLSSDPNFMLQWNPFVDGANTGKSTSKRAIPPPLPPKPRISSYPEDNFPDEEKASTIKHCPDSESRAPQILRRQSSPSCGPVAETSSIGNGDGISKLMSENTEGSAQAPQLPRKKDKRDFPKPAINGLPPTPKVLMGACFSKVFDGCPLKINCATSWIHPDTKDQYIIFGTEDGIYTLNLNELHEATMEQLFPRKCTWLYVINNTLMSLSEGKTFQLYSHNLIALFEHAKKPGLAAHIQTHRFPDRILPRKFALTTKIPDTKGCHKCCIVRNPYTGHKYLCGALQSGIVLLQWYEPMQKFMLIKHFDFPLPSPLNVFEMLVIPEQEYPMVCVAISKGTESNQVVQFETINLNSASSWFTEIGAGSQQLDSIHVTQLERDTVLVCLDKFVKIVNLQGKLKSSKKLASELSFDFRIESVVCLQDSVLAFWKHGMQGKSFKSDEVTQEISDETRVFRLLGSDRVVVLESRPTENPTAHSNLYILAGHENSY

[9] = molecular target: MAPK11 (human) (UniProt Q15759)
[10] = test system: OXSR1 (human), O95747 [T185E]; conditions: compound 1.0 µM
[11] = molecular target: PAK6 (human) (UniProt Q9NQU5)
Sequence of PAK6 (human) (Q9NQU5 whole entry, looked up): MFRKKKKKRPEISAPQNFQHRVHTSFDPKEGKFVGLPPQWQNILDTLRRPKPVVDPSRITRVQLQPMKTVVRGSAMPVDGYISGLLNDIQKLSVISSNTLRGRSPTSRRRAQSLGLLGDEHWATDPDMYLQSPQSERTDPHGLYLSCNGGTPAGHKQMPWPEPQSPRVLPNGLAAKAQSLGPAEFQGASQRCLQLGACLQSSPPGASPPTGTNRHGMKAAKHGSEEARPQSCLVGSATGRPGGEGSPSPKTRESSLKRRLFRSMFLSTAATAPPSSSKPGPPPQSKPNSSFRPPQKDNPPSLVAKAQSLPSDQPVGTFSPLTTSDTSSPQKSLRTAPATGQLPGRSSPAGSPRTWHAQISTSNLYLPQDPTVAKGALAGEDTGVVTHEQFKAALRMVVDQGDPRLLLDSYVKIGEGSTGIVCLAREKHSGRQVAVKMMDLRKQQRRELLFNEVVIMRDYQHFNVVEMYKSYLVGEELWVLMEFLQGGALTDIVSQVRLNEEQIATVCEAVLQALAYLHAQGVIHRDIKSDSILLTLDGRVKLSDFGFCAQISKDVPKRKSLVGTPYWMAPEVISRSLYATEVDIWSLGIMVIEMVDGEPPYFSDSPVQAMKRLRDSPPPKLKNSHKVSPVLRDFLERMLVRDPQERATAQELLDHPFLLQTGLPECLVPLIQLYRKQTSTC

[12] = molecular target: PDGFRA (human) (UniProt P16234); conditions: compound 5.0 µM
[13] = molecular target: PRKAA1 PRKAB2 PRKAG1 (human) (UniProt O43741+Q13131+P54619)
[14] = molecular target: PRKCG (human) (UniProt P05129)
[15] = molecular target: PTK6 (human) (UniProt Q13882)
[16] = molecular target: SIK2 (human) (UniProt Q9H0K1)
[17] = molecular target: SIK3 (human) (UniProt Q9Y2K2)
[18] = molecular target: STK16 (human) (UniProt O75716)
[19] = molecular target: STK24 (human) (UniProt Q9Y6E0)
Sequence of STK24 (human) (Q9Y6E0 whole entry, looked up): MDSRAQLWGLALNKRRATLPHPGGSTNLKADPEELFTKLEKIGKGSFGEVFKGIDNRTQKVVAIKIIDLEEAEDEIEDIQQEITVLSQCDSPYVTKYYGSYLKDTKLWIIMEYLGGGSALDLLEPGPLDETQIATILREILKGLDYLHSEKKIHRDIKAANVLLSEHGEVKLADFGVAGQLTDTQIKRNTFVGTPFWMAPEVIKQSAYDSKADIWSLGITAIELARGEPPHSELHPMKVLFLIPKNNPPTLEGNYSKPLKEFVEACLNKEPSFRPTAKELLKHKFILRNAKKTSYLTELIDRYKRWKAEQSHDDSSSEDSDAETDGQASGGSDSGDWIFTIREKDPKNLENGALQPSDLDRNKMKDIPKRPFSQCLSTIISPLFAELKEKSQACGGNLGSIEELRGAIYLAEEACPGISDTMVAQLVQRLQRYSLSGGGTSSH

[20] = molecular target: STK33 (human) (UniProt Q9BYT3)
Sequence of STK33 (human) (Q9BYT3 whole entry, looked up): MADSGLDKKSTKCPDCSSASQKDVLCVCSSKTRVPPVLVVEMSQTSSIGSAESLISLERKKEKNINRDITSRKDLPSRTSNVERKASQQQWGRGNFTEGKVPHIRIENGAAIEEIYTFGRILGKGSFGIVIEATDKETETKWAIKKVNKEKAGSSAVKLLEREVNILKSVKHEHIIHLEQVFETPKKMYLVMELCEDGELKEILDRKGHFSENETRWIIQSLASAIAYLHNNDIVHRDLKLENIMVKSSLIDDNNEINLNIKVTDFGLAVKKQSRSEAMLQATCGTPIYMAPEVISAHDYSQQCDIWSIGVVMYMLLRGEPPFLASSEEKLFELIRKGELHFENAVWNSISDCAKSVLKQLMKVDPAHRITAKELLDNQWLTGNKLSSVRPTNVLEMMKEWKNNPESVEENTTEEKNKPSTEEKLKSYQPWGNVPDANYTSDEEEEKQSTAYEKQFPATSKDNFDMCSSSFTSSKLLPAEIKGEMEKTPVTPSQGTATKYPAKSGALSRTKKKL

[21] = molecular target: TEK (human) (UniProt Q02763)
[22] = molecular target: TESK1 (human) (UniProt Q15569)
[23] = molecular target: TLK1 (human) (UniProt Q9UKI8)
[24] = molecular target: TSSK1B (human) (UniProt Q9BXA7)
[25] = molecular target: TTBK1 (human) (UniProt Q5TCY1)
[26] = molecular target: TTBK2 (human) (UniProt Q6IQ55)
[27] = molecular target: ULK1 (human) (UniProt O75385)
[28] = molecular target: ULK2 (human) (UniProt Q8IYT8)
[29] = molecular target: WNK1 (human) (UniProt Q9H4A3)
[30] = molecular target: ZAP70 (human) (UniProt P43403)
Sequence of ZAP70 (human) (P43403 whole entry, looked up): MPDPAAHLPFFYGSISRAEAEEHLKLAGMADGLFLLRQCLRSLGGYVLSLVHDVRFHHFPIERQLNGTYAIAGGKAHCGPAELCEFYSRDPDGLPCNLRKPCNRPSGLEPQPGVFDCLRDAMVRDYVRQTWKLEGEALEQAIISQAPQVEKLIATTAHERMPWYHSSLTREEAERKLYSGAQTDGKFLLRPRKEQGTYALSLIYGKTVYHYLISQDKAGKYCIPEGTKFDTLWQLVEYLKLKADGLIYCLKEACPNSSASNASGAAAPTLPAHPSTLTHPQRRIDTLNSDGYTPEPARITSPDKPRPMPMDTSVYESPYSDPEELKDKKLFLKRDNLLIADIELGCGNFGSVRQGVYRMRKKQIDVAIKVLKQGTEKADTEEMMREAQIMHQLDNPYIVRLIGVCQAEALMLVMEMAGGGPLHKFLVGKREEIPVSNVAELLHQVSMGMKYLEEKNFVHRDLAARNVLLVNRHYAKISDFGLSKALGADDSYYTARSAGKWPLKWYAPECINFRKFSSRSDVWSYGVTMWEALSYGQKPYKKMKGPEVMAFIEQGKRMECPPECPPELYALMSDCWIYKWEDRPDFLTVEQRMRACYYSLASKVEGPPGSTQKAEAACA

Sequence of ABL1 (human) (P00519 whole entry, looked up): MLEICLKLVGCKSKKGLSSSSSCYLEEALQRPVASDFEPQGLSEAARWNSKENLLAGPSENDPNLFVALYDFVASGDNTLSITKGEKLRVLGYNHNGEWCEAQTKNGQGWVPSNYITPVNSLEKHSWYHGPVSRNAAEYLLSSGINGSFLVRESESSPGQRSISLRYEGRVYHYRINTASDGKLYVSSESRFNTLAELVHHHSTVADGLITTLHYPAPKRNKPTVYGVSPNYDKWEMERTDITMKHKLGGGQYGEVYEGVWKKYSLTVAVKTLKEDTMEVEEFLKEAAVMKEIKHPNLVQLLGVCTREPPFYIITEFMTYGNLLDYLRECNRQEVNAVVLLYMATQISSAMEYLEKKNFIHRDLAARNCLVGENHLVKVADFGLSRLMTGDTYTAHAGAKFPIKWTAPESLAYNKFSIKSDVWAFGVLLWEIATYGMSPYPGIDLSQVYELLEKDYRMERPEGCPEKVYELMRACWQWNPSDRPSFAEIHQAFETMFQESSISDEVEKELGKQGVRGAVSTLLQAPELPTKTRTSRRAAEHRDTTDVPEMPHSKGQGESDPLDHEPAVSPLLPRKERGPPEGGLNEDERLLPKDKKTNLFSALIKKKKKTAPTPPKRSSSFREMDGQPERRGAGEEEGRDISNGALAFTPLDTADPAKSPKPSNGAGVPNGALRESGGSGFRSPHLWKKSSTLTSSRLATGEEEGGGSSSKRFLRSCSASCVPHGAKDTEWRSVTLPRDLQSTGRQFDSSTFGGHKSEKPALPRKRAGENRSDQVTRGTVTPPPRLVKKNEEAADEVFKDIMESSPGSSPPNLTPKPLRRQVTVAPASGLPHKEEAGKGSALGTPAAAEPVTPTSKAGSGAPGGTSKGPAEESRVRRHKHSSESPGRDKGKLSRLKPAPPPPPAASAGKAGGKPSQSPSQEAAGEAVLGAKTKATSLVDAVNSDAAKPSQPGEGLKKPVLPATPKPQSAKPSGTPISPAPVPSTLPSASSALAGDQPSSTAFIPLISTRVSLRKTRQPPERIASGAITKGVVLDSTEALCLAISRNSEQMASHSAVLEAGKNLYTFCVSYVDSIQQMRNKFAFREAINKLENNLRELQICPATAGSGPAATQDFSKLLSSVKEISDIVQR

residual activity ([1]; compound 1.0 µM): 119% | residual activity ([1]; compound 5.0 µM): 110% | residual activity ([2]; compound 1.0 µM): 119% | residual activity ([2]; compound 5.0 µM): 101% | residual activity ([3]; compound 1.0 µM): 124% | residual activity ([3]; compound 5.0 µM): 101% | residual activity ([4]; compound 1.0 µM): 105% | residual activity ([4]; compound 5.0 µM): 107% | residual activity ([5]; compound 1.0 µM): 111% | residual activity ([5]; compound 5.0 µM): 123% | residual activity ([6]; compound 1.0 µM): 96% | residual activity ([6]; compound 5.0 µM): 102% | residual activity ([7]; compound 1.0 µM): 95% | residual activity ([7]; compound 5.0 µM): 88% | residual activity ([8]; compound 1.0 µM): 116% | residual activity ([8]; compound 5.0 µM): 97% | residual activity ([9]; compound 1.0 µM): 111% | residual activity ([9]; compound 5.0 µM): 121% | residual activity [10]: 115% | residual activity ([11]; compound 1.0 µM): 119% | residual activity ([11]; compound 5.0 µM): 115% | residual activity [12]: 109% | residual activity ([13]; compound 1.0 µM): 111% | residual activity ([13]; compound 5.0 µM): 107% | residual activity ([14]; compound 1.0 µM): 120% | residual activity ([14]; compound 5.0 µM): 121% | residual activity ([15]; compound 1.0 µM): 107% | residual activity ([15]; compound 5.0 µM): 120% | residual activity ([16]; compound 1.0 µM): 108% | residual activity ([16]; compound 5.0 µM): 93% | residual activity ([17]; compound 1.0 µM): 110% | residual activity ([17]; compound 5.0 µM): 104% | residual activity ([18]; compound 1.0 µM): 121% | residual activity ([18]; compound 5.0 µM): 106% | residual activity ([19]; compound 1.0 µM): 101% | residual activity ([19]; compound 5.0 µM): 88% | residual activity ([20]; compound 1.0 µM): 117% | residual activity ([20]; compound 5.0 µM): 102% | residual activity ([21]; compound 1.0 µM): 99% | residual activity ([21]; compound 5.0 µM): 80% | residual activity ([22]; compound 1.0 µM): 106% | residual activity ([22]; compound 5.0 µM): 112% | residual activity ([23]; compound 1.0 µM): 108% | residual activity ([23]; compound 5.0 µM): 115% | residual activity ([24]; compound 1.0 µM): 103% | residual activity ([24]; compound 5.0 µM): 93% | residual activity ([25]; compound 1.0 µM): 110% | residual activity ([25]; compound 5.0 µM): 103% | residual activity ([26]; compound 1.0 µM): 125% | residual activity ([26]; compound 5.0 µM): 100% | residual activity ([27]; compound 1.0 µM): 104% | residual activity ([27]; compound 5.0 µM): 110% | residual activity ([28]; compound 1.0 µM): 96% | residual activity ([28]; compound 5.0 µM): 121% | residual activity ([29]; compound 1.0 µM): 112% | residual activity ([29]; compound 5.0 µM): 100% | residual activity ([30]; compound 1.0 µM): 99% | residual activity ([30]; compound 5.0 µM): 104%
Structure (SMILES): C=C1C(=O)OC2C1CC/C(C)=C/CCC1(C)OC21 (stereo not drawn)
